Assay results reported in a melting point compilation (Tetko et al.; mined from patent text by program, amines drawn as free bases though some values may be those of a salt).

| SMILES | melting point [°C] |
| --- | --- |
| CCCCC(CC)C(=O)Nc1ccc2ccn(Cc3ccc(C(=O)OC(=O)N(c4ccccc4)c4ccccc4)cc3OC)c2c1 (stereo unspecified) | 159 to 162 |
| O=C1c2ccccc2S(=O)(=O)N1C1CCN(Cc2c[nH]c3ccccc23)CC1 | 214 to 215 |
| COc1cc2ncnc(N3CCN(C(=O)NCc4cnc(C)cn4)CC3)c2cc1OC | 202 to 204 |
| CCCCN1CCN(Cc2ccc(COc3cccc4c3CN(C3CCC(=O)NC3=O)C4=O)cc2)CC1=O (stereo unspecified) | 138 to 140 |
| N#CC1=C(N)CCN(C(=O)c2ccccc2)C1 | 178 to 181 |
| O=C(CC(=O)c1ccc(F)cc1)c1ccc(F)cc1 | 70 to 72 |
| N#Cc1cc(Cl)cc(Oc2ccc(CC(=O)Nc3ccc(S(N)(=O)=O)cc3Br)cc2Br)c1 | 168 to 170 |
| Cc1c(CC(=O)O)c2cc(O)ccc2n1C(=O)c1ccc(F)c(F)c1 | 143 to 145 |
| CCN(CC)S(=O)(=O)c1cc(-n2c(=O)cc(C(F)(F)F)n(C)c2=O)c(F)cc1Cl | 190 to 191 |
| COC(C)=CC(=O)NC1CCC(C)CC1 (stereo unspecified) | 125 |
| CC(C)(C)OC(=O)Nc1cc(CC#N)c(C#Cc2ccccc2)cc1[N+](=O)[O-] | 166 |
| CC(C)Cn1c(CN2CCOCC2)nc2c(N)nc3c(c21)CCCC3 | 165 to 172 |
| O=C(NCCCS(=O)(=O)c1ccncc1)c1cccs1 | 124 to 125 |
| CSCc1cn(C)c2ccc(Cl)cc2c1=O | 148 to 150 |
| CCOC(=O)c1cn(CCCN(C)C)c2nn(C)cc2c1=O | 120 to 121 |
| C#Cc1cc(-c2cccs2)c(OC)cc1OC | 141 to 142 |
| CCCOc1c(C(=O)OCC)oc2ccc([N+](=O)[O-])cc12 | 107 |
| CCCNCCc1cccc(NS(=O)(=O)c2cccc(Cl)c2)c1 | 145 to 148 |
| N#CCCCN1CCOC(c2ccccc2)(c2ccccc2)CC1 | 89 to 90 |
| CCC(Cc1ccc(OC)c(OCCc2ccc(C(F)(F)F)cc2)c1)C(=O)O (stereo unspecified) | 64 to 66 |
| OCCCCCCCCCCCCN1CCC(CNC[C@H](O)COc2cccc3[nH]c4ccccc4c23)CC1 | 110 |
| CCCCCC(=O)NCCc1ccc(S(=O)(=O)NC(=O)c2ccc(C(=O)NCC(=O)O)nc2)cc1 | 115 to 116 |
| CCOC(=O)c1cn(C2CC2)c2cc(F)c(F)c(N)c2c1=O | 240 to 241 |
| CCOC(=O)[C@H]1O[C@@H]1C(=O)N[C@H](COCc1ccsc1)CC(C)C | 61 to 62.5 |
| CCOC(=O)C(C)(C)Oc1ccc(C(=O)c2cccs2)cc1 | 45 |
| CNc1nccc2c1nnn2Cc1ccccc1 | 269 to 273 |

| SMILES | melting point [°C] |
| --- | --- |
| C/C=C/c1cc(OC)c2oc(-c3ccc(O)c(OC)c3)c(CO)c2c1 | 175 to 179 |
| Cn1nc(C(F)(F)F)cc1Oc1cc(C#N)cc(OCc2ccc(F)cc2F)n1 | 109 |
| CCCc1nc2c(N)nc3cccnc3c2n1CCCCN(OC)C(=O)Nc1ccccc1 | 155 to 156 |
| COc1ccc(CSc2nnc(-c3ccc4occc4c3)o2)cc1C(F)(F)F | 135 to 136 |
| CCOC(=O)c1cncc(C(=O)NC(C)c2ccccc2)c1 (stereo unspecified) | 159 to 161 |
| O=C1COC[C@@H](c2cccc(F)c2)N1 | 119 to 121 |
| O=C(NC(C(=O)O)c1ccccc1)c1ccccc1SSc1ccccc1C(=O)NC(C(=O)O)c1ccccc1 (stereo unspecified) | 231 to 232 |
| CCOC(=O)CNC(=O)N1CS(=O)c2c1cc(C(F)(F)F)cc2[N+](=O)[O-] (stereo unspecified) | 150 |
| O=C(O)[C@@H]1CCC(=O)N1C(=O)c1ccccc1 | 140 to 141 |
| COc1cc(C)cc(-c2nn(CC#N)cc2-c2ccnc(S(C)(=O)=O)n2)c1 | 238 |
| COC(=O)/C=C/c1ccc(NC(C)=O)nc1 | 172 to 200 |
| N#Cc1cnn(-c2nc(F)c(C(F)(F)F)cc2Cl)c1N | 156 to 159 |
| CN(C)S(=O)(=O)c1ccc2c(c1)CC(N1CCN(CCN3CCOC3=O)CC1)c1ccccc1S2 (stereo unspecified) | 164 to 165 |
| Cc1c(O)c(=O)ccn1CCCCCO | 136 to 138 |
| Nc1c2c(=O)c3ccccc3c(=O)c2c(N)c2c(=O)n(CCCCCCO)c(=O)c12 | 210 to 211 |
| CCCCCCCCCC(=O)NC(=O)OCc1nc(C(C)C)c(Sc2cc(Cl)cc(Cl)c2)n1CC | 102 to 103 |
| C=C(C)n1c(=O)n(CC2CN(Cc3ccccc3)CCO2)c2ccccc21 (stereo unspecified) | 117 |
| O=C1c2ccccc2C(Cc2ccncc2)(Cc2ccncc2)C(=O)N1c1ccccc1 | > 270 |
| O=S(=O)(NCC(O)(Cn1cncn1)c1ccc(Cl)cc1Cl)c1ccc2ccccc2c1 (stereo unspecified) | 179 to 180 |
| O=C(OCC1CC1)c1ncn2c1[C@@H]1CCCN1C(=O)c1c(I)cccc1-2 | 164 to 165 |
| CCOC(=O)C(=Cc1c(Cl)n(Cc2ccc(Cl)cc2)c2ccccc12)C(=O)OCC | 98 to 99 |
| COc1cccc(CN2CCC(NC(=O)c3cnc4c(OC)cccc4c3Nc3ccc(C(=O)NC4CCN(Cc5ccccc5)CC4)cc3)CC2)c1 | 135 to 142 |
| Nc1nc2c(cnn2CCc2ccccc2)c2nc(-c3ccco3)nn12 | 225 to 226 |
| CCN1C(=O)C2=C(c3ccccc3)N(CC)C(=O)C2=C1c1ccccc1 | 229 to 230 |
| COC(=O)C(=CNC1CC1)C(=O)c1cc(F)c(Cl)cc1OC | 128 to 132 |
| CCC(=Cc1ccccc1)C(=O)O | 104 to 105 |

| SMILES | melting point [°C] |
| --- | --- |
| CN(CCNCc1c(O)c(Br)cc2c1CCC2(C)C)CCNC(=O)c1nc(Cl)c(N)nc1N | 134 to 136 |
| COC(=O)c1ccc(S(C)(=O)=O)c(COC(C)=O)c1Cl | 165 to 168 |
| CCCCNS(=O)(=O)c1cc(C(=O)OCC)cc(NCc2ccccc2)c1Oc1ccccc1 | 149 to 150 |
| CON=C1CN(c2nc3c(cc2F)c(=O)c(C(=O)O)cn3-c2ccc(F)cc2F)CC12CN(C(=O)OC(C)(C)C)C2 | 230 to 232 |
| ON=C1c2cc(Cl)ccc2-n2cccc21 | 211 |
| Cc1cn(C2CC(F)C(CO)O2)c(=S)[nH]c1=S (stereo unspecified) | 164 to 165 |
| C=CCC(C#N)(C#N)Cc1ccc(Br)cc1 | 61.7 |
| N#Cc1ccc2c(c1)Sc1ccc(Cl)cc1C=C2 | 207 to 210 |
| CC(Cc1ccncc1)(NC(=O)OC1C2CC3CC(C2)CC1C3)C(=O)NCCc1ccccc1 (stereo unspecified) | 176 |
| Nc1ccnc(C(F)(F)F)c1 | 56 to 58 |
| COCN1C(C)=C(C(=O)O)C(c2ccccc2C(F)(F)F)C(C(=O)O)=C1C | 172 to 173 |
| CSCC[C@H](NC(=O)Cc1cc(F)cc(F)c1)C(=O)N[C@@H]1C(=O)Nc2ccccc2S[C@@H]1c1ccccc1 | 85 to 90 |
| CCN1CCN(CC)c2cc([N+](=O)[O-])ccc2C1=O | 79 to 80 |
| Cn1ncnc1COc1nn2c(-c3ccc(F)cc3)nncc2c1-c1ccccc1F | 191 |
| Cc1nc2cccc(OCC(C)(C)C(=O)NCC3CC3)c2c(N)c1C(=O)O | 177 to 179 |
| Cc1c(C(=O)OC(C)(C)C)oc2cccc(O)c12 | 158 to 159 |
| CCn1ncc2c1ncc1c(OCCCN(C)C)nc3cc(C)nn3c12 | 62 to 64 |
| Oc1ccc(Cc2ccc(OCC(O)CCc3cccnc3)cc2)cc1 (stereo unspecified) | 98 to 99 |
| CC1CCC(C(=O)N(C)C)=C2NC=CC(=O)N21 (stereo unspecified) | 78 |
| O=C(NCCCc1ccc(CO)cc1)c1ccc(-c2ccccn2)cc1 | 118 to 120 |
| CN1C(=O)CCC1CN1C(=O)C2(COc3cc4c(cc32)CCO4)c2ccccc21 (stereo unspecified) | 72 to 76 |
| Nc1ccc(F)c(-c2ccccn2)c1F | 71 to 73 |
| Cc1cccc(-c2nc3ccc(Cl)nn3c2-c2ccnc(Nc3ccccc3C)c2)c1 | 191 to 192 |
| O=c1nc(-c2ccnc(-c3cccs3)c2)sc2ccccc12 | 160 to 161 |
| O=C(C=Cc1ccc(Br)cc1)c1cc(Br)ccc1[N+](=O)[O-] | 169 to 190 |
| CN(C)CC(O)c1cc(-c2ccccc2)on1 (stereo unspecified) | 117 to 119 |

| SMILES | melting point [°C] |
| --- | --- |
| COC(=O)c1cc(S(C)(=O)=O)c(NS(=O)(=O)c2sc3ccc(Cl)cc3c2C)cc1C | 205 to 207 |
| Cc1ccc(S(=O)(=O)OCC2Cc3cccc(-c4cccc(C)c4)c3O2)cc1 (stereo unspecified) | 81 to 82 |
| CC(C)C(=O)Nc1ccccc1C(F)(F)F | 114 |
| Cc1ccc(S(=O)(=O)c2nc(C)c(Br)c(C)n2)cc1 | 157 to 158 |
| CCCCNC(=O)NS(=O)(=O)c1ccc(CCNC(=O)N2CC(C)=CC2=O)cc1 | 189 to 191 |
| CCN(CC)C(=O)c1ccnc(Br)c1 | 200 to 203 |
| CS(=O)(=O)c1ccc(-c2oc(COc3ccccn3)nc2-c2ccc(F)cc2)cc1 | 276 to 278 |
| Cc1ccc(-c2coc3cc(O)c(O)cc3c2=O)cc1 | 280 |
| CCC(=C1SCCCS1)c1ccc(Oc2ccccc2)cc1 | 53 to 54 |
| c1ccc2c(c1)CCC(n1cncn1)C21OCCO1 (stereo unspecified) | 108 |
| OCc1cncn1C1CCCCC1 | 133 to 134 |
| O=C(O)C(O)P(=O)(O)O (stereo unspecified) | 153 to 154 |
| O=C(c1ccc2nonc2c1)N1CCC(O)CC1 | 132 to 136 |
| c1cnc2c(c1)NCCCC2 | 70 to 71 |
| COc1ccc2ccc(O)c(-c3nnc(Cl)c4ccccc34)c2c1 | > 210 |
| CCCC(=O)c1cc(-c2ccccc2)ns1 | 70 |
| Oc1cccc(C(O)CNCCCCn2cnc3ccccc32)c1 (stereo unspecified) | 58 to 62 |
| Cc1csc(-c2ncccc2C(=O)c2ccccn2)c1 | 122 to 123 |
| CCOC(=O)[C@H](CC(C)C)NC(=O)[C@@H](NC(=O)c1ccccc1)C(C)C | 159 to 160 |
| Cc1nc(C2OC(CO)C(O)C2O)c(N)nc1OCc1ccccc1 (stereo unspecified) | 152 to 153 |
| Cc1cccc(C)c1N(CCCCCCc1cccnc1)C(=O)C(C)N1C(=O)c2ccccc2C1=O (stereo unspecified) | 113 to 115 |
| N=C(N)Nc1nc(CCCCC(N)=NO)cs1 | 167 to 168 |
| CCOC(=O)COc1c(C)cc(C)c2c1CCC2=O | 75 to 77 |
